Data: patent US20260216238A1, “TETRATHIOMOLYBDIC ACID FOR USE IN TREATING COPPER METABOLISM-ASSOCIATED DISEASES OR DISORDERS (WILSON DISEASE)” (Alexion Pharmaceuticals, Inc., priority 2023, published 2026)
Read-outs that look alike come from different tables or passages of the source.

Test system: patients with Wilson disease (WD)
Procedure: This assessment is also applicable to SoC treatments. In addition, plasma Cp, CpC, plasma total copper, and LBC were measured with AUEC calculated for plasma total copper and LBC.
The LBC method measures exchangeable plasma copper that is not bound to either Cp or TPC.
Pharmacodynamics: Blood samples were collected to directly measure plasma total copper, PUF copper, dNCC, and LBC. Calculations may be performed for cNCC and cNCCcorrected, the latter of which is non-ceruloplasmin-bound and non-molybdenum-albumin-bound copper.

bis-choline tetrathiomolybdate [TTM]
AUEC(0-48 week) LBC, Mean (Adolescent): 1.5 mmol/L
AUEC(0-48 week) LBC, Median (Adolescent): 1.2 mmol/L
AUEC(0-48 week) PTC (plasma total copper), Mean (Adolescent): 7.5 mmol/L
AUEC(0-48 week) PTC (plasma total copper), Median (Adolescent): 5.4 mmol/L
AUEC(0-48 week) dNCC, Mean (Adolescent): 2.7 mmol/L
AUEC(0-48 week) dNCC, Median (Adolescent): 2.3 mmol/L
AUEC(0-48 week) LBC, Mean (Adult): 1.8 mmol/L
AUEC(0-48 week) LBC, Median (Adult): 1.2 mmol/L
AUEC(0-48 week) PTC (plasma total copper), Mean (Adult): 7.8 mmol/L
AUEC(0-48 week) PTC (plasma total copper), Median (Adult): 7.3 mmol/L
AUEC(0-48 week) dNCC, Mean (Adult): 3.2 mmol/L
AUEC(0-48 week) dNCC, Median (Adult): 2.2 mmol/L
